According to PMC5213647, “Honokiol as a specific collagen receptor glycoprotein VI antagonist on human platelets: Functional ex vivo and in vivo studies” (Scientific Reports, 2017):

Target: T1, collagen receptor glycoprotein VI (GP VI) (Homo sapiens, UniProt Q9HCN6)
T1 construct: gene GP6; native full-length receptor, captured from total human platelet lysate by immobilised anti-GP VI mAb on SPR chip; described as 60-65 kDa type I transmembrane glycoprotein
T1 sequence (Q9HCN6 21-339): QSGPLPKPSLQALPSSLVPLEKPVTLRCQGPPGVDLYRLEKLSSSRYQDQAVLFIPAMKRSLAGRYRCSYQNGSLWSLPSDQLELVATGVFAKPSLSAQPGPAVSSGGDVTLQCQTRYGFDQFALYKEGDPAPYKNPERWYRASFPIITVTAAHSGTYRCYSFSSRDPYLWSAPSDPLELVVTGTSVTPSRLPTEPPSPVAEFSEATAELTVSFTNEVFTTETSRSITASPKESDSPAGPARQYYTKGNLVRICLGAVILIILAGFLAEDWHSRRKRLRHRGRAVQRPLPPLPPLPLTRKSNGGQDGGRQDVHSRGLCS
Assay: SPR (ProteOn XPR36), GP VI captured by immobilised anti-GP VI mAb, kinetic […] Langmuir fit
Assay type: binding
Conditions: PBS with 0.005% Tween 20, pH 7.4, 25 °C; native GP VI captured from platelet lysate; analyte only 10 and 100 μM

Kd: 289 µM
SMILES: C=CCc1ccc(O)c(-c2ccc(O)c(CC=C)c2)c1 [Honokiol]
